Laboratory results taken from US8053416B2, “Isolation and structure of turbostatins 1-4” (Arizona Board of Regents, a body corporate of the State of …, priority 2005, dated 2011).

Columns and labels:
[1] = tested on: murine P388 lymphocytic leukemia cell line; assay: Murine P388 lymphocytic leukemia cell line growth inhibition; assay type: cell-based; details: in DMSO
Description: (§1) Cancer Cell Line Methods. The National Cancer Institute's standard sulforhodamine B assay was used to assess inhibition of human cancer cell growth. The murine P388 lymphocytic leukemia cell line results were obtained using 10% horse serum/Fisher medium with incubation for 24 hours.

[2] = tested on: BXPC-3 (pancreas adenocarcinoma); assay: NCI sulforhodamine B human cancer cell growth inhibition, BXPC-3; assay type: cell-based; details: in DMSO
Description: as §1

[3] = tested on: MCF-7 (breast adenocarcinoma); assay: NCI sulforhodamine B human cancer cell growth inhibition, MCF-7; assay type: cell-based; details: in DMSO
Description: as §1

SF268 (CNS glioblastoma) = assay: NCI sulforhodamine B human cancer cell growth inhibition, SF268; assay type: cell-based; details: in DMSO
Description: as §1

[4] = tested on: NCI-H460 (lung large cell); assay: NCI sulforhodamine B human cancer cell growth inhibition, NCI-H460; assay type: cell-based; details: in DMSO
Description: as §1

[5] = tested on: KML20L2 (colon adenocarcinoma); assay: NCI sulforhodamine B human cancer cell growth inhibition, KML20L2; assay type: cell-based; details: in DMSO
Description: as §1

[6] = tested on: DU-145 (prostate carcinoma); assay: NCI sulforhodamine B human cancer cell growth inhibition, DU-145; assay type: cell-based; details: in DMSO
Description: as §1

[7] = tested on: murine P388 lymphocytic leukemia (in vivo); details: dose levels from 4.0 to 800 mg/kg, 123 = 23% increase in median survival time; cited from earlier work
[8] = tested on: in vivo L-1210 lymphoid leukemia; details: cited from earlier work
[9] = tested on: human epidermoid carcinoma of the nasopharynx (KB) cell line; details: cited from earlier work

SMILES	Cell line inhibition value GI50 [1] [µg/mL]	Cell line inhibition value GI50 [2] [µg/mL]	Cell line inhibition value GI50 [3] [µg/mL]	Cell line inhibition value GI50 (SF268 (CNS glioblastoma)) [µg/mL]	Cell line inhibition value GI50 [4] [µg/mL]	Cell line inhibition value GI50 [5] [µg/mL]	Cell line inhibition value GI50 [6] [µg/mL]	T/C [7]	Activity against in vivo L-1210 lymphoid leukemia [8]	Activity against KB cell line [9]
CCCCCCCCCCC/C=C/[C@@H](O)[C@H](CO[C@@H]1O[C@H](CO)[C@@H](O)[C@H](O)[C@H]1O)NC(=O)CCCCCCCCCCCCCCC [Compound 1, 1-O-β-D-glucopyranosyl-2S-hexadecanoylamino-3R-hydroxy-4E-hexadecene]	0.27	0.71	0.44	0.98	0.34	0.35	1.6			
CCCCCCCCCCC/C=C/[C@@H](O)[C@H](CO[C@@H]1O[C@H](CO)[C@@H](O)[C@H](O)[C@H]1O)NC(=O)CCCCCCCCCCCCCCCCC [Compound 2, 1-O-β-D-glucopyranosyl-2S-octadecanoylamino-3R-hydroxy-4E-hexadecene]	0.15	1.0	0.39	1.9	0.53	0.35	1.7			
CCCCCCCCCCC/C=C/[C@@H](O)[C@H](CO[C@@H]1O[C@H](CO)[C@H](O)[C@H](O)[C@H]1O)NC(=O)CCCCCCCCCCCCCCC [Compound 3, 1-O-β-D-galactopyranosyl-2S-hexadecanoylamino-3R-hydroxy-4E-hexadecene]	0.25	1.6	0.48	1.9	0.55	0.48	2.6			
CCCCCCCCCCC/C=C/[C@@H](O)[C@H](CO[C@@H]1O[C@H](CO)[C@H](O)[C@H](O)[C@H]1O)NC(=O)CCCCCCCCCCCCCCCCC [Compound 4, 1-O-β-D-galactopyranosyl-2S-octadecanoylamino-3R-hydroxy-4E-hexadecene]	0.29	0.93	0.44	1.5	0.49	0.41	2.6			
NCCS(=O)(=O)O [taurine]								≤ 123	inactive	inactive
